Legend:
Type in all cases: cell-based
[1] = tested on: Enterobacter aerogenes (EAE) isolates; assay: MIC of compounds alone and combined with antibacterials, broth microdilution (CLSI); settings: alone
Procedure, shortened: (§1)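 Compound MIC, and antibacterial MIC at each fixed compound level, taken by visual inspection as lowest concentration stopping growth. Inoculum: log-phase bacteria, final 5·10^5 CFU/mL, cation-adjusted Mueller-Hinton broth; 16-20 h, 35° C, ambient air.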

[2] = tested on: Escherichia coli (ECO) isolates; assay: as above; settings: alone
Procedure, shortened: as §1

[3] = tested on: Enterobacter cloacae (ECL) isolates; assay: as above
Procedure, shortened: as §1

[4] = tested on: Proteus mirabilis (PMI) isolates; assay: microbe, parasite or virus in culture; settings: alone
Procedure, shortened: as §1

For `NC(=O)[C@@H]1CC[C@@H]2CN1C(=O)N2OC(F)(F)C(=O)[O-].[Na+]` [EA1], the MIC ([1]; EAE 49469) was >32 µg/mL, the MIC ([1]; EAE 200261) was >32 µg/mL and the MIC ([1]; EAE UFR199) was 128 µg/mL. For the same molecule, the MIC ([1]; EAE UFR201) was >32 µg/mL, the MIC ([1]; EAE UFR202) was >32 µg/mL and the MIC ([1]; EAE UFR213) was >32 µg/mL. For the same molecule, the MIC ([2]; ECO 4133) was 16 µg/mL, the MIC ([2]; ECO 5302) was 16 µg/mL and the MIC ([2]; ECO 131119) was 32 µg/mL. The MIC ([2]; ECO 180070) was >32 µg/mL, the MIC ([2]; ECO 190314) was >32 µg/mL and the MIC ([2]; ECO 190317) was 16 µg/mL. For the same molecule, the MIC ([2]; ECO 190457) was 16 µg/mL, the MIC ([2]; ECO 190549) was 16 µg/mL and the MIC ([2]; ECO 200159) was 32 µg/mL. For the same molecule, the MIC ([2]; ECO 200259) was 16 µg/mL, the MIC ([2]; ECO 200344) was >32 µg/mL and the MIC ([2]; ECO 260096) was 16 µg/mL. The MIC ([2]; ECO 260304) was 32 µg/mL, the MIC ([2]; ECO 260508) was 16 µg/mL and the MIC ([2]; ECO RGN238) was >32 µg/mL. The MIC ([2]; ECO UFR15) was 32 µg/mL, the MIC ([2]; ECO UFR16) was 16 µg/mL and the MIC ([2]; ECO UFR17) was 16 µg/mL. It also gave an MIC ([2]; ECO UFR18) of 16 µg/mL, an MIC ([2]; ECO UFR19) of 16 µg/mL and an MIC ([2]; ECO UFR20) of 64 µg/mL. The MIC ([2]; ECO UFR61O) was 32 µg/mL, the MIC ([2]; ECO UFR62) was 16 µg/mL and the MIC ([2]; ECO UFR74) was >32 µg/mL. The MIC ([2]; ECO UFR86) was 16 µg/mL, the MIC ([2]; ECO UFR174) was 8 µg/mL and the MIC ([2]; ECO UFR175) was 32 µg/mL. For the same molecule, the MIC ([2]; ECO UFR176) was 32 µg/mL, the MIC ([2]; ECO UFR184) was 8 µg/mL and the MIC ([2]; ECO UFR185) was 16 µg/mL. The MIC ([2]; ECO UFR186) was >32 µg/mL, the MIC ([2]; ECO UFR187) was >32 µg/mL and the MIC ([2]; ECO UFR189) was 16 µg/mL. The MIC ([2]; ECO UFR190) was 16 µg/mL, the MIC ([2]; ECO UFR191) was 32 µg/mL and the MIC ([2]; ECO UFR207) was 32 µg/mL. The MIC ([2]; ECO UFR208) was >32 µg/mL, the MIC ([2]; ECO UFR209) was 16 µg/mL and the MIC ([2]; ECO UFR210) was 16 µg/mL. For the same molecule, the MIC ([2]; ECO UFR211) was >32 µg/mL, the MIC ([2]; ECO UFR212) was 16 µg/mL and the MIC ([2]; ECO UFR218) was 16 µg/mL. For the same molecule, the MIC ([3]; ECL 2185D, alone) was 16 µg/mL, the MIC ([3]; ECL 190310, alone) was 32 µg/mL and the MIC ([3]; ECL 190408, alone) was >128 µg/mL. For the same molecule, the MIC ([3]; ECL 200138, alone) was >32 µg/mL, the MIC ([3]; ECL 200322, alone) was 16 µg/mL and the MIC ([3]; ECL 260033, alone) was 16 µg/mL. For the same molecule, the MIC ([3]; ECL 260253, alone) was >32 µg/mL, the MIC ([3]; ECL 260323, alone) was >32 µg/mL and the MIC ([3]; ECL 260508, alone) was >32 µg/mL. For the same molecule, the MIC ([3]; ECL NEM146383, alone) was 32 µg/mL, the MIC ([3]; ECL P99, alone) was 16 µg/mL and the MIC ([3]; ECL UFR12, alone) was 32 µg/mL. For the same molecule, the MIC ([3]; ECL UFR13, alone) was 32 µg/mL, the MIC ([3]; ECL UFR14, alone) was >32 µg/mL and the MIC ([3]; ECL UFR60, alone) was 32 µg/mL. The MIC ([3]; ECL UFR70, alone) was 32 µg/mL, the MIC ([3]; ECL UFR84, alone) was >32 µg/mL and the MIC ([3]; ECL UFR85, alone) was >32 µg/mL. For the same molecule, the MIC ([3]; ECL UFR194, alone) was >32 µg/mL, the MIC ([3]; ECL UFR200, alone) was >32 µg/mL and the MIC ([3]; strain ECL UFR195, compound alone) was >32 µg/mL. For the same molecule, the MIC ([3]; strain ECL UFR196, compound alone) was >32 µg/mL, the MIC ([3]; strain ECL UFR197, compound alone) was 16 µg/mL and the MIC ([3]; strain ECL UFR198, compound alone) was >32 µg/mL. The MIC ([4]; PMI UFR82) was >32 µg/mL, the MIC ([4]; PMI UFR120) was >32 µg/mL and the MIC ([4]; PMI UFR121) was >32 µg/mL. For the same molecule, the MIC ([4]; PMI UFR122) was >32 µg/mL, the MIC ([4]; PMI UFR123) was >32 µg/mL and the MIC ([4]; PMI UFR124) was >32 µg/mL. For the same molecule, the MIC ([4]; PMI UFR125) was >32 µg/mL, the MIC ([4]; PMI UFR126) was >32 µg/mL and the MIC ([4]; PMI UFR127) was >32 µg/mL. The MIC ([4]; PMI UFR129) was >32 µg/mL, the MIC ([4]; PMI UFR130) was >32 µg/mL and the MIC ([4]; PMI UFR237) was >32 µg/mL.

Source: patent US20200017496A1 (priority 2017, published 2020)
